PubChem BioAssay (NCI)
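Interpolation was linear, between the two tested concentrations surrounding the appropriate level; five concentrations were tested over 48 hours in 96-well plates. At the TGI there is no net growth.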

What was measured:
Assay in all cases: NCI-60 cell line screen, 48 h
786-0 renal = test system: 786-0 renal
A498 renal = test system: A498 renal
A549 NSCLC = test system: A549 NSCLC
ACHN renal = test system: ACHN renal
BT-549 breast = test system: BT-549 breast
CAKI-1 renal = test system: CAKI-1 renal
COLO 205 colon = test system: COLO 205 colon
EKVX NSCLC = test system: EKVX NSCLC
HCT-116 colon = test system: HCT-116 colon
HCT-15 colon = test system: HCT-15 colon
HOP-62 NSCLC = test system: HOP-62 NSCLC
HOP-92 NSCLC = test system: HOP-92 NSCLC
HS 578T breast = test system: HS 578T breast
HT29 colon = test system: HT29 colon
IGROV1 ovarian = test system: IGROV1 ovarian
K-562 leukemia = test system: K-562 leukemia
KM12 colon = test system: KM12 colon
LOX IMVI melanoma = test system: LOX IMVI melanoma
M14 melanoma = test system: M14 melanoma
MALME-3M melanoma = test system: MALME-3M melanoma
MCF7 breast = test system: MCF7 breast
MDA-MB-231 breast = test system: MDA-MB-231 breast
MDA-MB-435 = test system: MDA-MB-435
MDA-N = test system: MDA-N
MOLT-4 leukemia = test system: MOLT-4 leukemia
NCI-H226 lung = test system: NCI-H226 lung
NCI-H23 lung = test system: NCI-H23 lung
NCI-H460 lung = test system: NCI-H460 lung
NCI-H522 lung = test system: NCI-H522 lung
NCI/ADR-RES ovarian = test system: NCI/ADR-RES ovarian
OVCAR-3 ovarian = test system: OVCAR-3 ovarian
OVCAR-4 ovarian = test system: OVCAR-4 ovarian
OVCAR-5 ovarian = test system: OVCAR-5 ovarian
OVCAR-8 ovarian = test system: OVCAR-8 ovarian
PC-3 prostate = test system: PC-3 prostate
RPMI-8226 leukemia = test system: RPMI-8226 leukemia
RXF 393 renal = test system: RXF 393 renal
SF-268 CNS = test system: SF-268 CNS
SF-295 CNS = test system: SF-295 CNS
SF-539 CNS = test system: SF-539 CNS
SK-MEL-2 melanoma = test system: SK-MEL-2 melanoma
SK-MEL-28 melanoma = test system: SK-MEL-28 melanoma
SK-MEL-5 melanoma = test system: SK-MEL-5 melanoma
SK-OV-3 ovarian = test system: SK-OV-3 ovarian
SN12C renal = test system: SN12C renal
SNB-19 CNS = test system: SNB-19 CNS
SNB-75 CNS = test system: SNB-75 CNS
SR leukemia = test system: SR leukemia
SW-620 colon = test system: SW-620 colon
T-47D breast = test system: T-47D breast
TK-10 renal = test system: TK-10 renal
U251 CNS = test system: U251 CNS
UACC-257 melanoma = test system: UACC-257 melanoma
UACC-62 melanoma = test system: UACC-62 melanoma
UO-31 renal = test system: UO-31 renal
CCRF-CEM leukemia = test system: CCRF-CEM leukemia
DU-145 prostate = test system: DU-145 prostate
HCC-2998 colon = test system: HCC-2998 colon
HL-60(TB) leukemia = test system: HL-60(TB) leukemia

c1cncc(CNCCN2CCNCC2)c1
TGI (786-0 renal): > 100 µM | TGI (A498 renal): > 100 µM | TGI (A549 NSCLC): > 100 µM | TGI (ACHN renal): > 100 µM | TGI (BT-549 breast): > 100 µM | TGI (CAKI-1 renal): > 100 µM | TGI (COLO 205 colon): > 100 µM | TGI (EKVX NSCLC): > 100 µM | TGI (HCT-116 colon): > 100 µM | TGI (HCT-15 colon): > 100 µM | TGI (HOP-62 NSCLC): > 100 µM | TGI (HOP-92 NSCLC): > 100 µM | TGI (HS 578T breast): > 100 µM | TGI (HT29 colon): > 100 µM | TGI (IGROV1 ovarian): > 100 µM | TGI (K-562 leukemia): > 100 µM | TGI (KM12 colon): > 100 µM | TGI (LOX IMVI melanoma): > 100 µM | TGI (M14 melanoma): > 100 µM | TGI (MALME-3M melanoma): > 100 µM | TGI (MCF7 breast): > 100 µM | TGI (MDA-MB-231 breast): > 100 µM | TGI (MDA-MB-435): > 100 µM | TGI (MDA-N): > 100 µM | TGI (MOLT-4 leukemia): > 100 µM | TGI (NCI-H226 lung): > 100 µM | TGI (NCI-H23 lung): > 100 µM | TGI (NCI-H460 lung): > 100 µM | TGI (NCI-H522 lung): > 100 µM | TGI (NCI/ADR-RES ovarian): > 100 µM | TGI (OVCAR-3 ovarian): > 100 µM | TGI (OVCAR-4 ovarian): > 100 µM | TGI (OVCAR-5 ovarian): > 100 µM | TGI (OVCAR-8 ovarian): > 100 µM | TGI (PC-3 prostate): > 100 µM | TGI (RPMI-8226 leukemia): > 100 µM | TGI (RXF 393 renal): > 100 µM | TGI (SF-268 CNS): > 100 µM | TGI (SF-295 CNS): > 100 µM | TGI (SF-539 CNS): > 100 µM | TGI (SK-MEL-2 melanoma): > 100 µM | TGI (SK-MEL-28 melanoma): > 100 µM | TGI (SK-MEL-5 melanoma): > 100 µM | TGI (SK-OV-3 ovarian): > 100 µM | TGI (SN12C renal): > 100 µM | TGI (SNB-19 CNS): > 100 µM | TGI (SNB-75 CNS): > 100 µM | TGI (SR leukemia): > 100 µM | TGI (SW-620 colon): > 100 µM | TGI (T-47D breast): > 100 µM | TGI (TK-10 renal): > 100 µM | TGI (U251 CNS): > 100 µM | TGI (UACC-257 melanoma): > 100 µM | TGI (UACC-62 melanoma): > 100 µM | TGI (UO-31 renal): > 100 µM

COc1ccccc1CNCCCCCNCCCCCCCCCCNCCCCCNCc1ccccc1OC
TGI (786-0 renal): 42.1 µM | TGI (A549 NSCLC): 58.8 µM | TGI (ACHN renal): > 100 µM | TGI (BT-549 breast): 45.5 µM | TGI (CCRF-CEM leukemia): 32.4 µM | TGI (COLO 205 colon): > 100 µM | TGI (DU-145 prostate): 33.5 µM | TGI (HCC-2998 colon): 39.2 µM | TGI (HCT-116 colon): 24.1 µM | TGI (HCT-15 colon): > 100 µM | TGI (HL-60(TB) leukemia): 43.7 µM | TGI (HOP-62 NSCLC): 31.8 µM | TGI (HOP-92 NSCLC): > 100 µM | TGI (HS 578T breast): 5.78 µM | TGI (HT29 colon): > 100 µM | TGI (IGROV1 ovarian): 45 µM | TGI (K-562 leukemia): 31.7 µM | TGI (KM12 colon): 58.4 µM | TGI (LOX IMVI melanoma): 30.3 µM | TGI (M14 melanoma): > 100 µM | TGI (MALME-3M melanoma): 61.3 µM | TGI (MCF7 breast): 32.7 µM | TGI (MDA-MB-231 breast): 31.6 µM | TGI (MDA-MB-435): > 100 µM | TGI (MDA-N): 34.5 µM | TGI (MOLT-4 leukemia): 26.5 µM | TGI (NCI-H226 lung): 34.3 µM | TGI (NCI-H23 lung): > 100 µM | TGI (NCI-H460 lung): 26.8 µM | TGI (NCI-H522 lung): 42.2 µM | TGI (OVCAR-3 ovarian): > 100 µM | TGI (OVCAR-4 ovarian): > 100 µM | TGI (OVCAR-8 ovarian): 77.7 µM | TGI (RPMI-8226 leukemia): > 100 µM | TGI (RXF 393 renal): 96.3 µM | TGI (SF-268 CNS): > 100 µM | TGI (SF-295 CNS): > 100 µM | TGI (SF-539 CNS): 21.2 µM | TGI (SK-MEL-2 melanoma): 34.7 µM | TGI (SK-MEL-28 melanoma): > 100 µM | TGI (SK-MEL-5 melanoma): > 100 µM | TGI (SN12C renal): 79.6 µM | TGI (SNB-19 CNS): > 100 µM | TGI (SNB-75 CNS): 70.3 µM | TGI (SR leukemia): 32.2 µM | TGI (SW-620 colon): > 100 µM | TGI (T-47D breast): > 100 µM | TGI (TK-10 renal): > 100 µM | TGI (U251 CNS): 32.9 µM | TGI (UACC-62 melanoma): > 100 µM | TGI (UO-31 renal): > 100 µM

COc1cc(Br)c(CC2C3=C(CCN2C(=O)C2CCC2)CC2(CC3)OCCO2)cc1O (stereo not drawn)
TGI (786-0 renal): > 100 µM | TGI (A498 renal): > 100 µM | TGI (A549 NSCLC): > 100 µM | TGI (ACHN renal): > 100 µM | TGI (CAKI-1 renal): > 100 µM | TGI (CCRF-CEM leukemia): > 100 µM | TGI (COLO 205 colon): 34.8 µM | TGI (DU-145 prostate): > 100 µM | TGI (EKVX NSCLC): > 100 µM | TGI (HCC-2998 colon): > 100 µM | TGI (HCT-116 colon): > 100 µM | TGI (HCT-15 colon): > 100 µM | TGI (HL-60(TB) leukemia): > 100 µM | TGI (HOP-62 NSCLC): > 100 µM | TGI (HOP-92 NSCLC): > 100 µM | TGI (HS 578T breast): > 100 µM | TGI (HT29 colon): 60.3 µM | TGI (IGROV1 ovarian): > 100 µM | TGI (K-562 leukemia): > 100 µM | TGI (KM12 colon): > 100 µM | TGI (LOX IMVI melanoma): > 100 µM | TGI (M14 melanoma): > 100 µM | TGI (MALME-3M melanoma): > 100 µM | TGI (MCF7 breast): > 100 µM | TGI (MDA-MB-231 breast): > 100 µM | TGI (MDA-MB-435): 64 µM | TGI (MDA-N): > 100 µM | TGI (MOLT-4 leukemia): > 100 µM | TGI (NCI-H226 lung): > 100 µM | TGI (NCI-H23 lung): 79.7 µM | TGI (NCI-H460 lung): > 100 µM | TGI (NCI-H522 lung): 98.4 µM | TGI (NCI/ADR-RES ovarian): > 100 µM | TGI (OVCAR-3 ovarian): > 100 µM | TGI (OVCAR-4 ovarian): > 100 µM | TGI (OVCAR-5 ovarian): > 100 µM | TGI (OVCAR-8 ovarian): > 100 µM | TGI (PC-3 prostate): > 100 µM | TGI (RPMI-8226 leukemia): > 100 µM | TGI (RXF 393 renal): 44.4 µM | TGI (SF-268 CNS): > 100 µM | TGI (SF-295 CNS): > 100 µM | TGI (SF-539 CNS): > 100 µM | TGI (SK-MEL-2 melanoma): > 100 µM | TGI (SK-MEL-28 melanoma): > 100 µM | TGI (SK-MEL-5 melanoma): > 100 µM | TGI (SK-OV-3 ovarian): > 100 µM | TGI (SN12C renal): > 100 µM | TGI (SNB-19 CNS): > 100 µM | TGI (SNB-75 CNS): 76.8 µM | TGI (SR leukemia): > 100 µM | TGI (SW-620 colon): > 100 µM | TGI (T-47D breast): > 100 µM | TGI (TK-10 renal): > 100 µM | TGI (U251 CNS): > 100 µM | TGI (UACC-257 melanoma): > 100 µM | TGI (UACC-62 melanoma): > 100 µM
